Data from patent US8772509B2, “Indole compounds as positive allosteric modulators of the muscarinic receptor” (Vanderbilt University, priority 2010, dated 2014).

Molecular target: T1, mAChR M1 (UniProt P08482)
T1 sequence (P08482 1-460): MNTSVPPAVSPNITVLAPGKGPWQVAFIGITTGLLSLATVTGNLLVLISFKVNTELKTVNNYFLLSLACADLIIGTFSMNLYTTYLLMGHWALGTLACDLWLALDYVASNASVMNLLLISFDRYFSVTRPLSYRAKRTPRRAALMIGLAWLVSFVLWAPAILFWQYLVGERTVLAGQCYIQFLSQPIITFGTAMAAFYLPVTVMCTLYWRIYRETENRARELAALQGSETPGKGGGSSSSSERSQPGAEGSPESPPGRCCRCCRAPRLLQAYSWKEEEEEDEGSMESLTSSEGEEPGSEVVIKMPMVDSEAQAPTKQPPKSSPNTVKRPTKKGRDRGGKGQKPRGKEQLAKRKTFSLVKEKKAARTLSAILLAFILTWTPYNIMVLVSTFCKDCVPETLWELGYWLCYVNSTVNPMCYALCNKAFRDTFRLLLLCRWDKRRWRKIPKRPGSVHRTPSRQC
Assay: mAChR M1 cell-based functional assay (calcium mobilization, Fluo-4, FDSS)
Details: for EC50: positive allosteric modulation of EC20 acetylcholine response, CHO-K1 cells expressing mAChR M1, read-out: Potency (EC50); for Efficacy (% ACh maximum at 30 μM): maximal calcium flux response from curve fit or response at 30 μM compound, as % of the EC80 ACh response
Description: Chinese hamster ovary (CHO-K1) cells stably expressing rat (r)M1 were purchased from the American Type Culture Collection and cultured according to their indicated protocol. […] To make stable rM2, hM2, rM3, hM4, and rM4 cell lines for use in calcium mobilization assays, these cells also were stably transfected with a chimeric G-protein (Gqi5) (provided by B. R. Conklin, University of California, San Francisco) using Lipofectamine 2000. rM1, hM1, rM3, hM3, rM5, and hM5 cells were grown in Ham's F-12 medium containing 10% heat-inactivated fetal bovine serum (FBS), 20 mM HEPES, and 50 μg/mL G418 sulfate. rM2-Gqi5, hM2-Gqi5, and hM4-Gqi5 cells were grown in the same medium also containing 500 μg/mL Hygromycin B. Stable rM4-Gqi5 cells were grown in DMEM containing 10% heat-inactivated FBS, 20 mM HEPES, 400 μg/mL G418 sulfate, and 500 μg/mL Hygromycin B.
For high throughput measurement of agonist-evoked increases in intracellular calcium, CHO-K1 cells stably expressing muscarinic receptors were plated in growth medium lacking G418 and hygromycin at 15,000 cells/20 μL/well in Greiner 384-well black-walled, tissue culture (TC)-treated, clear-bottom plates (VWR). Cells were incubated overnight at 37° C. and 5% CO2. […] Compound master plates were formatted in an 11 point CRC format (1:3 dilutions) in 100% DMSO with a starting concentration of 10 mM using the BRAVO liquid handler (Agilent). Test compound CRCs were then transferred to daughter plates (240 nL) using the Echo acoustic plate reformatter (Labcyte, Sunnyvale, Calif.) and then diluted into assay buffer (40 μL) to a 2× stock using a Thermo Fisher Combi (Thermo Fisher Scientific, Waltham, Mass.).
Calcium flux was measured using the Functional Drug Screening System (FDSS) 6000 (Hamamatsu Corporation, Tokyo, Japan) as an increase in the fluorescent static ratio. Compounds were applied to cells (20 μL, 2×) using the automated system of the FDSS 6000 at 4 s into the 300 s protocol and the data were collected at 1 Hz. […] Agonist activity was analyzed as a concentration-dependent increase in calcium mobilization upon compound addition. Positive allosteric modulator activity was analyzed as a concentration-dependent increase in the EC20 acetylcholine response. Antagonist activity was analyzed as a concentration-dependent decrease in the EC80 acetylcholine response. Concentration-response curves were generated using a four-parameter logistical equation in XLfit curve fitting software (IDBS, Bridgewater, N.J.) for Excel (Microsoft, Redmond, Wash.) or Prism (GraphPad Software, Inc., San Diego, Calif.).
The calcium mobilization assay was also used to determine “efficacy”. In the context of the assays carried out for the data in Table I, “efficacy” (% ACh at 30 μM) is defined as the maximal response in the calcium flux as determined by the sigmoidal curve fit of the concentration response curve, or in the absence of an acceptable curve fit, the response recorded at 30 μM test compound, stated as a percentage of the response elicited by a concentration of Ach that induces approximately 80% of a maximal (i.e. saturating) ACh response.

Structure (SMILES) | EC50 | Efficacy (% ACh maximum at 30 μM)
Cc1cc(NC(=O)CS(=O)(=O)c2cn(Cc3ccccc3F)c3ccccc23)no1 [compound 43, 2-{1-[(2-fluorophenyl)methyl]-1H-indole-3-sulfonyl}-N-(5-methyl-1,2-oxazol-3-yl)acetamide] | > 10 µM | –
Cc1cc(NC(=O)C[S+]([O-])c2cn(Cc3cccc(Cl)c3)c3ccccc23)no1 (stereo not shown) [compound 29, 2-((1-(3-chlorobenzyl)-1H-indol-3-yl)sulfinyl)-N-(5-methylisoxazol-3-yl)acetamide] | 5.23 µM | 93%
Cc1cc(NC(=O)CS(=O)(=O)c2cn(Cc3cccc(C#N)c3)c3ccccc23)no1 [compound 45, 2-{1-[(3-cyanophenyl)methyl]-1H-indole-3-sulfonyl}-N-(5-methyl-1,2-oxazol-3-yl)acetamide] | > 10 µM | –
Cc1cc(NC(=O)CS(=O)(=O)c2cn(Cc3ccc(Cl)c(Cl)c3)c3ccccc23)no1 [compound 55, 2-{1-[(3,4-dichlorophenyl)methyl]-1H-indole-3-sulfonyl}-N-(5-methyl-1,2-oxazol-3-yl)acetamide] | > 10 µM | –
O=C(CS(=O)(=O)c1cn(Cc2cc(Br)ccc2F)c2ccccc12)Nc1ccccc1 [compound 59, 2-{1-[(5-bromo-2-fluorophenyl)methyl]-1H-indole-3-sulfonyl}-N-phenylacetamide] | > 10 µM | –
Cc1cc(NC(=O)C(Cc2ccc(OC(F)(F)F)cc2)S(=O)(=O)c2cn(Cc3ccc(OC(F)(F)F)cc3)c3ccccc23)no1 (stereo not shown) [compound 74, N-(5-methyl-1,2-oxazol-3-yl)-3-[4-(trifluoromethoxy)phenyl]-2-(1-{[4-(trifluoromethoxy)phenyl]methyl}-1H-indole-3-sulfonyl)propanamide] | > 10 µM | –
Cc1cc(NC(=O)CS(=O)(=O)c2cn(Cc3cccc(-c4ccc(N5CCCC5)nc4)c3)c3ccccc23)no1 [compound 67, N-(5-methyl-1,2-oxazol-3-yl)-2-[1-({3-[6-(pyrrolidin-1-yl)pyridin-3-yl]phenyl}methyl)-1H-indole-3-sulfonyl]acetamide] | > 10 µM | –
Cc1cc(NC(=O)CS(=O)(=O)c2cn(Cc3ccc4c(c3)OCO4)c3ccccc23)no1 [compound 50, 2-[1-(2H-1,3-benzodioxol-5-ylmethyl)-1H-indole-3-sulfonyl]-N-(5-methyl-1,2-oxazol-3-yl)acetamide] | > 10 µM | –
COc1cccc(Cn2cc(S(=O)(=O)CC(=O)Nc3cc(C)on3)c3ccccc32)c1 [compound 33, 2-((1-(3-methoxybenzyl)-1H-indol-3-yl)sulfonyl)-N-(5-methylisoxazol-3-yl)acetamide] | 6.54 µM | 79%
O=C(CS(=O)(=O)c1cn(Cc2cccc(-n3ccnn3)c2)c2cc(F)cc(F)c12)Nc1ccccn1 [compound 10, 2-((1-(3-(1H-1,2,3-triazol-1-yl)benzyl)-4,6-difluoro-1H-indol-3-yl)sulfonyl)-N-(pyridn-2-yl)acetamide] | 2.6 µM | 67%
Cc1cc(NC(=O)CS(=O)(=O)c2cn(Cc3ccc(F)nc3)c3ccccc23)no1 [compound 44, 2-{1-[(6-fluoropyridin-3-yl)methyl]-1H-indole-3-sulfonyl}-N-(5-methyl-1,2-oxazol-3-yl)acetamide] | > 10 µM | –
Cc1cc(NC(=O)C(C)S(=O)(=O)c2cn(Cc3cc(Br)ccc3F)c3ccccc23)no1 (stereo not shown) [compound 63, 2-{1-[(5-bromo-2-fluorophenyl)methyl]-1H-indole-3-sulfonyl}-N-(5-methyl-1,2-oxazol-3-yl)propanamide] | > 10 µM | –

Results, then the compound that gave them:

EC50 | Efficacy (% ACh maximum at 30 μM) | Structure (SMILES)
1.2 µM | 66% | Cc1cc(NC(=O)CS(=O)(=O)c2cn(Cc3cccc(-c4ccncc4)c3)c3cc(F)cc(F)c23)no1 [compound 2, 2-((4,6-difluoro-1-(3-(pyridin-4-yl)benzyl)-1H-indol-3-yl)sulfonyl)-N-(5-methylisoxazol-3-yl)acetamide]
> 10 µM | – | Cc1cc(NC(=O)CS(=O)(=O)c2cn(Cc3cccc(-c4ccccc4)c3)c3ccccc23)no1 [compound 56, N-(5-methyl-1,2-oxazol-3-yl)-2-{1-[(3-phenylphenyl)methyl]-1H-indole-3-sulfonyl}acetamide]
5.82 µM | 96% | Cc1cc(NC(=O)CS(=O)(=O)c2cn(Cc3cccc(Cl)c3)c3ccccc23)no1 [compound 32, 2-((1-(3-chlorobenzyl)-1H-indol-3-yl)sulfonyl)-N-(5-methylisoxazol-3-yl)acetamide]
5.6 µM | 69% | Nc1cccc(Cn2cc(S(=O)(=O)CC(=O)Nc3ccccn3)c3c(F)cc(F)cc32)c1 [compound 31, 2-((1-(3-aminobenzyl)-4,6-difluoro-1H-indol-3-yl)sulfonyl)-N-(pyridin-2-yl)acetamide]
2.4 µM | 62% | O=C(CS(=O)(=O)c1cn(Cc2cccc(Br)c2)c2cc(F)cc(F)c12)Nc1ccccn1 [compound 6, 2-((1-(3-bromobenzyl)-4,6-difluoro-1H-indol-3-yl)sulfonyl)-N-(pyridin-2-yl)acetamide]
2.9 µM | 55% | O=C(CS(=O)(=O)c1cn(Cc2cccc(-c3ccncc3)c2)c2cc(F)cc(F)c12)Nc1ccccn1 [compound 14, 2-((4,6-difluoro-1-(3-(pyridin-4-yl)benzyl)-1H-indol-3-yl)sulfonyl)-N-(pyridin-2-yl)acetamide]
3.4 µM | 50% | COc1ncc(-c2cccc(Cn3cc(S(=O)(=O)CC(=O)Nc4ccccn4)c4c(F)cc(F)cc43)c2)cn1 [compound 18, 2-((4,6-difluoro-1-(3-(2-methoxypyrimidin-5-yl)benzyl)-1H-indol-3-yl)sulfonyl)-N-(pyridin-2-yl)acetamide]
> 10 µM | 37% | COc1ncccc1-c1cccc(Cn2cc(S(=O)(=O)CC(=O)Nc3ccccn3)c3c(F)cc(F)cc32)c1 [compound 40, 2-((4,6-difluoro-1-(3-(2-methoxypyridin-3-yl)benzyl)-1H-indol-3-yl)sulfonyl)-N-(pyridin-2-yl)acetamide]
2.4 µM | 63% | O=C(CS(=O)(=O)c1cn(Cc2cccc(Br)c2)c2cc(F)cc(F)c12)Nc1cccnn1 [compound 7, 2-((1-(3-bromobenzyl)-4,6-difluoro-1H-indol-3-yl)sulfonyl)-N-(pyridazin-3-yl)acetamide]
5.22 µM | – | Cc1cc(NC(=O)CS(=O)(=O)c2cn(Cc3cccc(F)c3)c3ccccc23)no1 [compound 28, 2-((1-(3-fluorobenzyl)-1H-indol-3-yl)sulfonyl)-N-(5-methylisoxazol-3-yl)acetamide]
2.8 µM | 53% | [N-]=[N+]=Nc1cccc(Cn2cc(S(=O)(=O)CC(=O)Nc3ccccn3)c3c(F)cc(F)cc32)c1 [compound 13, 2-((1-(3-azidobenzyl)-4,6-difluoro-1H-indol-3-yl)sulfonyl)-N-(pyridin-2-yl)acetamide]
1.85 µM | 102% | Cc1cc(NC(=O)CS(=O)(=O)c2cn(Cc3cccc(-c4cn[nH]c4)c3)c3cc(F)cc(F)c23)no1 [compound 4, 2-((1-(3-(1H-pyrazol-4-yl)benzyl)-4,6-difluoro-1H-indol-3-yl)sulfonyl)-N-(5-methylisoxazol-3-yl)acetamide]
